Test results reported in patent publication US12703729B2, “GIP agonist compounds and methods” (Zealand Pharma A/S, priority 2014, dated 2026).
Starred links: 1 amine or outer side, 2 acyl side, 3 side chain; linkers in the order of their positions; H or OH if unused. Non-standard residues stand in square brackets, D forms with d. Residues, ends and D or L forms follow the SMILES beside them. Groups on a side chain read outwards from the residue. *: point of attachment. X1 = O=C(O)CCCCCCCCCCCCCCCCCCC(=O)N1CCN(CC(=O)*)CC1; C20 diacid = O=C(O)CCCCCCCCCCCCCCCCCCC(=O)*; γGlu = O=C(O)[C@H](CCC(=O)[*:2])N[*:1]; AEEA = NCCOCCOCC(=O)O; Aib = CC(C)(N)C(=O)O

Key:
[1] = target: T1, human GIP R (Homo sapiens, UniProt P48546); test: cell-based
T1 sequence (P48546 22-466): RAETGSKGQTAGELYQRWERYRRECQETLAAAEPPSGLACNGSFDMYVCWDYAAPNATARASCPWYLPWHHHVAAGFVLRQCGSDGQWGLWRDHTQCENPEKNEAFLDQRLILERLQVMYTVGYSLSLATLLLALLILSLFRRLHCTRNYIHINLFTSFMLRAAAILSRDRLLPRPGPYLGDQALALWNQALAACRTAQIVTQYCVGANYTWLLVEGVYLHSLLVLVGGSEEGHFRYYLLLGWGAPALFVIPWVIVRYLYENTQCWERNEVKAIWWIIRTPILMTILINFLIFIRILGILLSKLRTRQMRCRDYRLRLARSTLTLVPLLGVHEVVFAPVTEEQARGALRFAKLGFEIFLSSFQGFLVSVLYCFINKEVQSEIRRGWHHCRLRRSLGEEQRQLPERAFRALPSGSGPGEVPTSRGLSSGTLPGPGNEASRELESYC

[2] = in vivo; conditions: male, C57BL/6J, mouse; for bioavailability: Bioavailability s.c.; for half-life: 200 nmol/kg
[3] = target: T2, human GIP receptor (GIP R) (Homo sapiens, UniProt P48546); test: Activity assay at human GIP receptor, cAMP induction (AlphaScreen), Example 3
T2 sequence (P48546 22-466): T1 sequence (P48546 22-466)

[4] = target: human GLP-1 receptor (GLP-1R) (Homo sapiens, UniProt P43220); test: Activity assay at human GLP-1 receptor, cAMP induction (AlphaScreen), Example 3
[5] = iv, Terminal elimination half-life T½ i.v.
[6] = sc, Terminal elimination half-life T½ s.c.

human GLP-1 receptor (GLP-1R), sequence (P43220 24-463): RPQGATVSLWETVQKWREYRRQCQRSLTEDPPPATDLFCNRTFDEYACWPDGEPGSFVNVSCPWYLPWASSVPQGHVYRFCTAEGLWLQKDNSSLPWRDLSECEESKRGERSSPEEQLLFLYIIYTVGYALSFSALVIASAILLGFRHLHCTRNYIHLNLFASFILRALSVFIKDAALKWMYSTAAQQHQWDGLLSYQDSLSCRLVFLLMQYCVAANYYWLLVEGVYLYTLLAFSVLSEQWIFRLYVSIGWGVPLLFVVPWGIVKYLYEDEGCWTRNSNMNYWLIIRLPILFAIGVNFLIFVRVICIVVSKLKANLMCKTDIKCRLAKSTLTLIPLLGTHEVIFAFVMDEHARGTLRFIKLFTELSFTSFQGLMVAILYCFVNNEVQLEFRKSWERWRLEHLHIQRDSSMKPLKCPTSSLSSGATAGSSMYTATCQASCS

Compound `CC[C@H](C)[C@H](NC(=O)[C@H](CO)NC(=O)[C@H](Cc1ccc(O)cc1)NC(=O)[C@H](CC(=O)O)NC(=O)[C@H](CO)NC(=O)[C@@H](NC(=O)[C@H](Cc1ccccc1)NC(=O)[C@@H](NC(=O)CNC(=O)[C@H](CCC(=O)O)NC(=O)C(C)(C)NC(=O)[C@@H](N)Cc1ccc(O)cc1)[C@@H](C)O)[C@@H](C)CC)C(=O)N[C@@H](CCC(=O)O)C(=O)N[C@@H](CC(C)C)C(=O)N[C@@H](CCC(=O)O)C(=O)N[C@@H](CCCCN)C(=O)N[C@@H](CCCCNC(=O)COCCOCCNC(=O)COCCOCCNC(=O)CC[C@H](NC(=O)CCCCCCCCCCCCCCCCCCC(=O)O)C(=O)O)C(=O)N[C@@H](C)C(=O)N[C@@H](CCC(N)=O)C(=O)N[C@@H](CCCNC(=N)N)C(=O)N[C@@H](C)C(=O)N[C@@H](Cc1ccccc1)C(=O)N[C@H](C(=O)N[C@@H](CCC(=O)O)C(=O)N[C@@H](Cc1c[nH]c2ccccc12)C(=O)N[C@@H](CC(C)C)C(=O)N[C@@H](CC(C)C)C(=O)N[C@@H](C)C(=O)N[C@@H](CCC(N)=O)C(=O)NCC(=O)N1CCC[C@H]1C(=O)N[C@@H](CO)C(=O)N[C@@H](CO)C(=O)NCC(=O)N[C@@H](C)C(=O)N1CCC[C@H]1C(=O)N1CCC[C@H]1C(=O)N1CCC[C@H]1C(=O)N[C@@H](CO)C(N)=O)C(C)C` [Compound 12] has an EC50 [1] of 0.009 nM, a bioavailability [2] of 77% and a half-life [2, 5] of 14.7 h. The Tmax ([2]; sc) was 8 h, the half-life [2, 6] was 16.8 h and the bioavailability ([2]; sc, repeated test) was 98%. For the same compound, the EC50 [3] was 0.009 nM and the EC50 [4] was > 3 nM.

`CC[C@H](C)[C@H](NC(=O)[C@H](CCCCN)NC(=O)[C@H](CCC(=O)O)NC(=O)[C@H](CC(C)C)NC(=O)[C@H](CCC(=O)O)NC(=O)[C@@H](NC(=O)[C@H](CO)NC(=O)[C@H](Cc1ccc(O)cc1)NC(=O)[C@H](CC(=O)O)NC(=O)[C@H](CO)NC(=O)[C@@H](NC(=O)[C@H](Cc1ccccc1)NC(=O)[C@@H](NC(=O)CNC(=O)[C@H](CCC(=O)O)NC(=O)C(C)(C)NC(=O)[C@@H](N)Cc1ccc(O)cc1)[C@@H](C)O)[C@@H](C)CC)[C@@H](C)CC)C(=O)N[C@@H](C)C(=O)N[C@@H](CCC(N)=O)C(=O)N[C@@H](CCCNC(=N)N)C(=O)N[C@@H](C)C(=O)N[C@@H](Cc1ccccc1)C(=O)N[C@H](C(=O)N[C@@H](CCC(=O)O)C(=O)N[C@@H](Cc1c[nH]c2ccccc12)C(=O)N[C@@H](CC(C)C)C(=O)N[C@@H](CC(C)C)C(=O)N[C@@H](C)C(=O)N[C@@H](CCC(N)=O)C(=O)NCC(=O)N1CCC[C@H]1C(=O)N[C@@H](CO)C(=O)N[C@@H](CO)C(=O)NCC(=O)N[C@@H](C)C(=O)N1CCC[C@H]1C(=O)N1CCC[C@H]1C(=O)N1CCC[C@H]1C(=O)N[C@@H](CO)C(=O)N[C@@H](CCCCNC(=O)COCCOCCNC(=O)COCCOCCNC(=O)CC[C@H](NC(=O)CCCCCCCCCCCCCCCCCCC(=O)O)C(=O)O)C(N)=O)C(C)C` [Compound 13] (H-Y[Aib]EGTFISDYSIELEKIAQRAFVEWLLAQGPSSGAPPPSK([AEEA-AEEA-γGlu-C20 diacid])-NH2) showed an EC50 [1] of 0.014 nM, a bioavailability [2] of 75% and a half-life [2, 5] of 14.4 h. The Tmax ([2]; sc) was 8 h, the half-life [2, 6] was 13.7 h and the EC50 [3] was 0.008 nM. The EC50 [4] was > 10 nM.

With `CC[C@H](C)[C@H](NC(=O)[C@H](Cc1ccccc1)NC(=O)[C@H](CC(=O)O)NC(=O)[C@H](CCC(N)=O)NC(=O)[C@H](C)NC(=O)[C@H](C)NC(=O)[C@H](CCCCNC(=O)COCCOCCNC(=O)COCCOCCNC(=O)CC[C@H](NC(=O)CCCCCCCCCCCCCCCCCCC(=O)O)C(=O)O)NC(=O)[C@H](CCCCN)NC(=O)[C@H](CC(=O)O)NC(=O)[C@H](CC(C)C)NC(=O)[C@H](CCC(=O)O)NC(=O)[C@@H](NC(=O)[C@H](CO)NC(=O)[C@H](Cc1ccc(O)cc1)NC(=O)[C@H](CC(=O)O)NC(=O)[C@H](CO)NC(=O)[C@@H](NC(=O)[C@H](Cc1ccccc1)NC(=O)[C@@H](NC(=O)CNC(=O)[C@H](CCC(=O)O)NC(=O)C(C)(C)NC(=O)[C@@H](N)Cc1ccc(O)cc1)[C@@H](C)O)[C@@H](C)CC)[C@@H](C)CC)C(=O)N[C@@H](CCC(=O)O)C(=O)N[C@@H](Cc1c[nH]c2ccccc12)C(=O)N[C@@H](CC(C)C)C(=O)N[C@@H](CC(C)C)C(=O)N[C@@H](C)C(=O)NCC(=O)N1CCC[C@H]1C(=O)N[C@@H](CO)C(=O)N[C@@H](CO)C(=O)NCC(=O)N[C@@H](C)C(=O)N1CCC[C@H]1C(=O)N1CCC[C@H]1C(=O)N1CCC[C@H]1C(=O)N[C@@H](CO)C(N)=O` [Compound 32] (H-Y[Aib]EGTFISDYSIELDKK([AEEA-AEEA-γGlu-C20 diacid])AAQDFIEWLLAGPSSGAPPPS-NH2) the EC50 [1] was 0.02 nM, the EC50 [3] was 0.012 nM and the EC50 [4] was > 100 nM.

For `CC[C@H](C)[C@H](NC(=O)[C@H](Cc1ccccc1)NC(=O)[C@H](CC(=O)O)NC(=O)[C@H](CCC(N)=O)NC(=O)[C@H](C)NC(=O)[C@H](C)NC(=O)[C@H](CCCCNC(=O)COCCOCCNC(=O)COCCOCCNC(=O)CC[C@H](NC(=O)CCCCCCCCCCCCCCCCCCC(=O)O)C(=O)O)NC(=O)[C@H](CCCCN)NC(=O)[C@H](CC(=O)O)NC(=O)[C@H](CC(C)C)NC(=O)[C@H](CCC(=O)O)NC(=O)[C@@H](NC(=O)[C@H](CO)NC(=O)[C@H](Cc1ccc(O)cc1)NC(=O)[C@H](CC(=O)O)NC(=O)[C@H](CO)NC(=O)[C@@H](NC(=O)[C@H](Cc1ccccc1)NC(=O)[C@@H](NC(=O)CNC(=O)[C@H](CCC(=O)O)NC(=O)C(C)(C)NC(=O)[C@@H](N)Cc1ccc(O)cc1)[C@@H](C)O)[C@@H](C)CC)[C@@H](C)CC)C(=O)N[C@@H](CC(N)=O)C(=O)N[C@@H](Cc1c[nH]c2ccccc12)C(=O)N[C@@H](CC(C)C)C(=O)N[C@@H](CC(C)C)C(=O)N[C@@H](C)C(=O)NCC(=O)N1CCC[C@H]1C(=O)N[C@@H](CO)C(=O)N[C@@H](CO)C(=O)NCC(=O)N[C@@H](C)C(=O)N1CCC[C@H]1C(=O)N1CCC[C@H]1C(=O)N1CCC[C@H]1C(=O)N[C@@H](CO)C(N)=O` [Compound 31] (H-Y[Aib]EGTFISDYSIELDKK([AEEA-AEEA-γGlu-C20 diacid])AAQDFINWLLAGPSSGAPPPS-NH2), the EC50 [1] was 0.012 nM, the EC50 [3] was 0.009 nM and the EC50 [4] was > 100 nM.

In the case of `CC[C@H](C)[C@H](NC(=O)[C@H](CCCCN)NC(=O)[C@H](CC(=O)O)NC(=O)[C@H](CC(C)C)NC(=O)[C@H](CCC(=O)O)NC(=O)[C@@H](NC(=O)[C@H](CO)NC(=O)[C@H](Cc1ccc(O)cc1)NC(=O)[C@H](CC(=O)O)NC(=O)[C@H](CO)NC(=O)[C@@H](NC(=O)[C@H](Cc1ccccc1)NC(=O)[C@@H](NC(=O)CNC(=O)[C@H](CCC(=O)O)NC(=O)[C@@H](C)NC(=O)[C@@H](N)Cc1ccc(O)cc1)[C@@H](C)O)[C@@H](C)CC)[C@@H](C)CC)C(=O)N[C@@H](C)C(=O)N[C@@H](C)C(=O)N[C@@H](CCC(N)=O)C(=O)N[C@@H](CC(=O)O)C(=O)N[C@@H](Cc1ccccc1)C(=O)N[C@H](C(=O)N[C@@H](CCC(=O)O)C(=O)N[C@@H](Cc1c[nH]c2ccccc12)C(=O)N[C@@H](CC(C)C)C(=O)N[C@@H](CC(C)C)C(=O)N[C@@H](C)C(=O)NCC(=O)N1CCC[C@H]1C(=O)N[C@@H](CO)C(=O)N[C@@H](CO)C(=O)NCC(=O)N[C@@H](C)C(=O)N1CCC[C@H]1C(=O)N1CCC[C@H]1C(=O)N1CCC[C@H]1C(=O)N[C@@H](CO)C(=O)N[C@@H](CCCCNC(=O)COCCOCCNC(=O)COCCOCCNC(=O)CN1CCN(C(=O)CCCCCCCCCCCCCCCCCCC(=O)O)CC1)C(N)=O)[C@@H](C)CC` [Compound 37] (H-Y[dA]EGTFISDYSIELDKIAAQDFIEWLLAGPSSGAPPPSK([AEEA-AEEA-X1])-NH2), the EC50 [1] is reported as 0.016 nM, the EC50 [3] is reported as 0.006 nM and the EC50 [4] is reported as > 10 nM.

In the case of `CC[C@H](C)[C@H](NC(=O)[C@H](CO)NC(=O)[C@H](Cc1ccc(O)cc1)NC(=O)[C@H](CC(=O)O)NC(=O)[C@H](CO)NC(=O)[C@@H](NC(=O)[C@H](Cc1ccccc1)NC(=O)[C@@H](NC(=O)CNC(=O)[C@H](CCC(=O)O)NC(=O)C(C)(C)NC(=O)[C@@H](N)Cc1ccc(O)cc1)[C@@H](C)O)[C@@H](C)CC)C(=O)N[C@@H](CCC(=O)O)C(=O)N[C@@H](CC(C)C)C(=O)N[C@@H](CC(=O)O)C(=O)N[C@@H](CCCCN)C(=O)N[C@@H](CCCCNC(=O)COCCOCCNC(=O)COCCOCCNC(=O)CC[C@H](NC(=O)CCCCCCCCCCCCCCCCCCC(=O)O)C(=O)O)C(=O)N[C@@H](C)C(=O)N[C@@H](C)C(=O)N[C@@H](CCC(N)=O)C(=O)N[C@@H](C)C(=O)N[C@@H](Cc1ccccc1)C(=O)N[C@H](C(=O)N[C@@H](CC(N)=O)C(=O)N[C@@H](Cc1c[nH]c2ccccc12)C(=O)N[C@@H](CC(C)C)C(=O)N[C@@H](CC(C)C)C(=O)N[C@@H](C)C(=O)NCC(=O)N1CCC[C@H]1C(=O)N[C@@H](CO)C(=O)N[C@@H](CO)C(=O)NCC(=O)N[C@@H](C)C(=O)N1CCC[C@H]1C(=O)N1CCC[C@H]1C(=O)N1CCC[C@H]1C(=O)N[C@@H](CO)C(N)=O)C(C)C` [Compound 29] (H-Y[Aib]EGTFISDYSIELDKK([AEEA-AEEA-γGlu-C20 diacid])AAQAFVNWLLAGPSSGAPPPS-NH2), the EC50 [1] is reported as 0.014 nM, the EC50 [3] is reported as 0.007 nM and the EC50 [4] is reported as > 100 nM.
